According to PMC4255499 (Frontiers in Physiology, 2014):

Target: T1, α1-microglobulin (A1M) (Homo sapiens, UniProt P02760)
T1 construct: gene AMBP; Recombinant human A1M with an N-terminal His8-tag (tgA1M)
T1 sequence (P02760 20-203): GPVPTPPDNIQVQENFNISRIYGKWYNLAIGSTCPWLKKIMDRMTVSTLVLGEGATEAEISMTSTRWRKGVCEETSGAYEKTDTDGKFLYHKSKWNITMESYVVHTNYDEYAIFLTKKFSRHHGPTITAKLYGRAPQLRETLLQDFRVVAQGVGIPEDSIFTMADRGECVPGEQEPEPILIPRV
Test: SPR (tgA1M captured by anti-His antibody, […] binding model); also UV/Vis titration, induced CD, native PAGE shift

## C=CC1=C(C)C2=Cc3c(C=C)c(C)c4[n]3[Fe][n]3c(c(C)c(CCC(=O)O)c3=CC3=NC(=C4)C(C)=C3CCC(=O)O)=CC1=N2 [heme]
  Kd: 7.02 µM
